Measured values reported in article PMC3206071, “Characterization of a Truncated Metabotropic Glutamate Receptor in a Primitive Metazoan, the Parasitic Flatworm Schistosoma mansoni” (PLoS ONE, 2011).

Columns and labels:
[1] = target: T1, SmGBP (S. mansoni glutamate-binding protein) (Schistosoma mansoni, UniProt E2IFW0); assay: [3H]glutamate radioligand competition at […], purified SmGBP-His; conditions: read-out: % inhibition at 10 mM
[2] = target: T1, SmGBP (S. mansoni glutamate-binding protein); assay: as above
[3] = target: T1, SmGBP (S. mansoni glutamate-binding protein); assay: [3H]glutamate radioligand competition with unlabelled glutamate, PEG precipitation, purified SmGBP-His

T1 sequence (E2IFW0 entry or part of it): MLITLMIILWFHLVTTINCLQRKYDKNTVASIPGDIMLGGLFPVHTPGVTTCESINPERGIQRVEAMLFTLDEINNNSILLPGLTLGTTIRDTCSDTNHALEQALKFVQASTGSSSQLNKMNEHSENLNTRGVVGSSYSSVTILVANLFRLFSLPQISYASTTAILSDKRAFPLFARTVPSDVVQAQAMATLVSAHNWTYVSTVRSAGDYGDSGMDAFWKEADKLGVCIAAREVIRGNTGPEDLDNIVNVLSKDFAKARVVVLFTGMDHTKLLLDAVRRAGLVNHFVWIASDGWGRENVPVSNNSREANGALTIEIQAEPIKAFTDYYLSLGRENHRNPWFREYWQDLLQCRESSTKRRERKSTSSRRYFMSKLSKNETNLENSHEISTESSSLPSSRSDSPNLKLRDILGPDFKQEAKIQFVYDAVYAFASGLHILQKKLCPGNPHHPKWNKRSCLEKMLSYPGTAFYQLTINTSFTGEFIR

| SMILES | inhibition at 10000 µM [1] | [3H]glutamate radioligand competition at 10 mM, purified SmGBP-His [2] | further results |
| --- | --- | --- | --- |
| NC(=O)CC[C@H](N)C(=O)O [glutamine] | 77% |  |  |
| C[C@@](N)(C(=O)O)c1ccc(C(=O)O)cc1 [(S)-MCPG, (S)-a-Methyl-4-carboxyphenylglycine] |  | able to compete with [^3H]glutamate, AP4 (mGluR III agonist) and S)-MCPG (mGluRs I/II antagonist) being the strongest |  |
| N[C@@H](CC(=O)O)C(=O)O [aspartate] | 84% |  |  |
| N[C@H](C(=O)O)c1cc(O)cc(O)c1 [(S)-3,5-DHPG, (S)-3,5-Dihydroxyphenylglycine] |  | also recognized some glutamatergic agents, for example, agonists DHPG and AP4 and the antagonist, MCPG |  |
| N[C@@H](CCC(=O)O)C(=O)O [glutamate] |  |  | IC50 [3]: 300 ± 50 nM |
| N[C@@H](CCP(=O)(O)O)C(=O)O [L-AP4, L-(+)-2-Amino-4-phosphonobutyric acid] |  | able to compete with [^3H]glutamate, AP4 (mGluR III agonist) and S)-MCPG (mGluRs I/II antagonist) being the strongest |  |
